ChEMBL document CHEMBL5120852, “New Aβ(1-42) ligands from anti-amyloid antibodies: Design, synthesis, and structural interaction” (Eur J Med Chem, 2022)
Active and inactive are the calls of the source. The calls are words filed in the database; no cut-off is given here. Where a SMILES comes first, the peptide text is derived from it. [ ]: non-standard residue; d: D form. Aib = CC(C)(N)C(=O)O

Columns and labels:
SH-SY5Y = assay: Neuroprotective activity against amyloid beta (1 to 42)-induced cytotoxicity in human SH-SY5Y cells assessed as increase in cell viability at 0.000001 to 10 mM preincubated with compound for 48 hrs followed by stimulation with amyloid beta(1 to 42) and measured after 18 hrs by MTT assay; assay type: functional, cell-based; settings: dose lower 1 nM, dose upper 10.0 mM
[1] = biological target: T1, Amyloid-beta precursor protein (Homo sapiens, UniProt P05067); assay: Binding affinity to 5R to 22E residues of 15N-labelled amyloid beta (1 to 42) (unknown origin) expressed in Escherichia coli BL21 (DE3)-pLysS cells assessed as chemical shift perturbation by measuring dissociation constant by Chemical shift mapping NMR analysis
T1 sequence (P05067 whole entry): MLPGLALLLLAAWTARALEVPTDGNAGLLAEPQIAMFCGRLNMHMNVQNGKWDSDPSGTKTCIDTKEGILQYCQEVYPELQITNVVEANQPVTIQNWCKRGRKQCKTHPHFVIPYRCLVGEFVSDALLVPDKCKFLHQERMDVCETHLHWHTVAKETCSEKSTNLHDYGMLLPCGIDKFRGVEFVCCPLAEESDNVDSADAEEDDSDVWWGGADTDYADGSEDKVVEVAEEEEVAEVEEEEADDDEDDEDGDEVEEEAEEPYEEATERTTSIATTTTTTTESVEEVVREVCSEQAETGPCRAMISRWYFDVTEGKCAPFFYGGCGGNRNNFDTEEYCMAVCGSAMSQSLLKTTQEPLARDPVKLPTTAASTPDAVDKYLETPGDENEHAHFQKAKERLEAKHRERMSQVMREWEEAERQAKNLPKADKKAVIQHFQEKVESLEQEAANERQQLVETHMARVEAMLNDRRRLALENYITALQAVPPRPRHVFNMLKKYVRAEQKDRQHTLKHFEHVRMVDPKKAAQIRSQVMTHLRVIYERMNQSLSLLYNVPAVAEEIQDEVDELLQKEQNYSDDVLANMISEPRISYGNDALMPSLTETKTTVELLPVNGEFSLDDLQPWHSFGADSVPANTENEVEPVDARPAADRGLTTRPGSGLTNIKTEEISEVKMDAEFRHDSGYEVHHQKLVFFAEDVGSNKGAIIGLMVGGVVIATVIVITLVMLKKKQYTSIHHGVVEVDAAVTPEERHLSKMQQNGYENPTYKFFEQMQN

[2] = biological target: T1, Amyloid-beta precursor protein; assay: Disaggregation of 15N-labelled amyloid beta (1 to 42) (unknown origin) expressed in Escherichia coli BL21 (DE3)-pLysS cells in pH 7.4 buffer assessed as absence of mature fibrils at 1:20 protein to compound molar ratio incubated for 192 hrs by AFM microscopic analysis
[3] = biological target: T1, Amyloid-beta precursor protein; assay: Disaggregation of 15N-labelled amyloid beta (1 to 42) (unknown origin) expressed in Escherichia coli BL21 (DE3)-pLysS cells in pH 7.4 buffer assessed as absence of bundle of fibrils at 1:20 protein to compound molar ratio incubated for 192 hrs by AFM microscopic analysis
[4] = biological target: T1, Amyloid-beta precursor protein; assay: Inhibition of 15N-labelled amyloid beta (1 to 42) (unknown origin) expressed in Escherichia coli BL21 (DE3)-pLysS cells fibrillization assessed as absence of mature fibrils at 1:20 protein to compound molar ratio incubated for 192 hrs by AFM microscopic analysis
[5] = biological target: T1, Amyloid-beta precursor protein; assay: Inhibition of 15N-labelled amyloid beta (1 to 42) (unknown origin) expressed in Escherichia coli BL21 (DE3)-pLysS cells fibrillization assessed as absence of observable number of protofibrils at 1:20 protein to compound molar ratio incubated for 192 hrs by AFM microscopic analysis
[6] = biological target: T1, Amyloid-beta precursor protein; assay: Inhibition of 15N-labelled amyloid beta (1 to 42) (unknown origin) expressed in Escherichia coli BL21 (DE3)-pLysS cells fibrillization assessed as decrease in indicator of fibrillization (DoF) by AFM microscopic analysis

| Kd [1] | Activity [2] | Activity [3] | inhibition [4] | inhibition [5] | Activity [6] | Compound | Activity (SH-SY5Y) |
| --- | --- | --- | --- | --- | --- | --- | --- |
| 5.74 mM | Active | Active | Active | Active | 0.03 | CC(C)(NC(=O)[C@@H](N)Cc1c[nH]c2ccccc12)C(=O)N[C@@H](Cc1c[nH]cn1)C(=O)O (H-Trp-[Aib]-His-OH) | Active |
| 0.65 mM | Active | Active | Active | Active | 0.06 | H-SYSTPGK-OH | Active |
